Measurements reported in paper PMC3366986, “On the Mechanism of Action of SJ-172550 in Inhibiting the Interaction of MDM4 and p53” (PLoS ONE, 2012).
Values after ≈ are worked out from the molar mass of the structure shown.

Experiments:
[1] = solubility assay (µSOL Evolution, pION); assay type: physicochemical; conditions: system solution buffer (SSB, pION), pH 7.4, aqueous buffer, kinetic from dmso stock
Procedure: Solubility assay was carried out on Biomek FX lab automation workstation (Beckman Coulter, Inc., Fullerton, CA) using µSOL Evolution software (pION Inc., Woburn, MA). The detailed method is described as following. 10 µL of 10 mM compound stock (in DMSO) was added to 190 µL 1-propanol to make a reference stock plate. 5 µL from this reference stock plate was mixed with 70 µL 1-propanol and 75 µL SSB (system solution buffer, pH adjusted to 7.4, pION Inc., Woburn, MA) to make the reference plate, and the UV spectrum (250 nm –500 nm) of the reference plate was read. 6 µL of 10 mM test compound stock was added to 594 µL SSB in a 96-well storage plate and mixed. The storage plate was sealed and incubated at room temperature for 18 hours. The suspension was then filtered through a 96-well filter plate (pION Inc., Woburn, MA). 75 µL filtrate was mixed with 75 µL 1-propanol to make the sample plate, and the UV spectrum of the sample plate was read. Calculation was carried out by µSOL Evolution software based on the AUC (area under curve) of UV spectrum of the sample plate and the reference plate. All compounds were tested in triplicates.

[2] = biological target: C77A mutant of MDM2 (Homo sapiens, UniProt Q00987, C77A); experiment: covalent labelling of MDM2 C77A mutant; conditions: C77A mutation; Figure S6
C77A mutant of MDM2, sequence (Q00987 whole entry C77A): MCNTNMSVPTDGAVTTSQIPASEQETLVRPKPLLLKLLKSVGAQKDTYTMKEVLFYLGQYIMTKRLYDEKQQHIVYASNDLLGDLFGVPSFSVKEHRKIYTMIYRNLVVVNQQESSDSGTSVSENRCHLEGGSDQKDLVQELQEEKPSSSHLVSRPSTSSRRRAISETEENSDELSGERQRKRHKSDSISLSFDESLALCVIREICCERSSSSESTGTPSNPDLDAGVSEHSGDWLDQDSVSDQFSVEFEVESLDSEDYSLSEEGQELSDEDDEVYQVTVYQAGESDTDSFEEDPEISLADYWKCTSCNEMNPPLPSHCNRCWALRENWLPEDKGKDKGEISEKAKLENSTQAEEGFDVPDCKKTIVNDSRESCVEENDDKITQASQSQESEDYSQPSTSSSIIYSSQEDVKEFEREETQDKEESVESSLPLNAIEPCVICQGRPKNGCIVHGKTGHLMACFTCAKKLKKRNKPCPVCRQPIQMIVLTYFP

[3] = biological target: T1, hMDMX (GST-tagged, a.a. 1–185) (Homo sapiens, UniProt O15151); experiment: fluorescence polarization competition assay, MDMX-p53 peptide binding; conditions: for IC50: Figure 3, read-out: IC50, inhibition of MDMX-p53 peptide binding
T1 construct: hMDMX (GST-tagged, a.a. 1–185); made in house; host or cells: E. coli BL21(DE3)
T1 sequence (O15151 1-185): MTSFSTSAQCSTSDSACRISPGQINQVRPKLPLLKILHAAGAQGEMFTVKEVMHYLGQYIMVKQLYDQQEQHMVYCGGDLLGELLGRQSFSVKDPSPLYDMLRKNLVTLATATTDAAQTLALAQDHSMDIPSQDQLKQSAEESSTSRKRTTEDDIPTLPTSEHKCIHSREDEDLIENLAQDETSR
Procedure: All fluorescence polarization assays were performed in binding buffer (10 mM Tris, pH 8.0, 170 mM NaCl, 0.05% Tween-20) unless otherwise noted. For competition assays a master mix of 15 nM Texas red-labeled (N-terminal label) P53 Peptide (sequence: […]) with 1 µM hMDMX (GST-tagged, a.a. 1–185) was prepared and 20 µl was added to black polystyrene 384 well plates (Corning #3573). DMSO stock solutions of test compounds were then added by pin transfer (V&P scientific) in nano-liter volumes (maximum final DMSO percentage = 1%). The assay mixture was incubated at room temperature for one hour and read on an EnVision multi-label plate reader using a 555 nm excitation filter, a 632 nm emission filter, and a Texas Red FP dichroic mirror. Binding inhibition curves and IC50 values were determined by fitting observed mP values to a 4-parameter sigmoidal binding curve using PRISM 5.0 (GraphPad Software, Inc.).

[4] = biological target: Mdm2 (Homo sapiens, UniProt Q00987); experiment: fluorescence polarization p53 peptide exclusion assay, Mdm2; assay type: binding; conditions: ND = compound does not noticeably block interaction with p53 peptide
Mdm2, sequence (Q00987 whole entry): as the sequence (Q00987 whole entry C77A) above, with A77C counted along it
From the text: (§1) the α,β-unsaturated amide towards Mdm2 and Mdmx as determined using fluorescence
(§2) polarization p53 peptide exclusion assay. Compound core according to J. Biol. Chem. 2010;
(§3) 285: 10786 is marked in blue.
(§4) Compound Chemical formula Compound code Mdm2 MdmX […]

[5] = biological target: T2, hMDMX (aa 23–111) (Homo sapiens, UniProt O15151); experiment: SPR binding of compound 1 to immobilized hMDMX; conditions: 100 µM
T2 construct: hMDMX (23–111) was immobilized to the SPR chips using a biotin tag; made in house
T2 sequence (O15151 23-111): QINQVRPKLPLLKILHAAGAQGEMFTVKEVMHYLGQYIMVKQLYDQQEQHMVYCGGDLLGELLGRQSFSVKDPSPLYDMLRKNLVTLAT
Procedure: Binding studies were performed at 25°C using a Biacore T100 (GE Healthcare) surface plasmon resonance (SPR) instrument. Either streptavidin or NeutrAvidin (Thermo Scientific) was immobilized on a carboxymethyldextran-coated gold surface (CM5 chip; GE Healthcare) by standard amine coupling methods. The carboxymethyl groups of dextran were activated with N-ethyl-N ´-(3-dimethylaminopropyl) carbodiimide (EDC) and N-hydroxysuccinimide (NHS). For peptide experiments, streptavidin was attached at pH 4.5 in 10 mM sodium acetate to levels of ∼3000 RU per flow cell. For small molecule experiments, NeutrAvidin was attached at pH 5.0 in 10 mM sodium acetate to levels of ∼11000–12000 RU per flow cell. Any remaining reactive sites were blocked by reaction with ethanolamine. Biotin-MDM4 was captured on the chip by injection over the streptavidin or NeutrAvidin surface.
For peptide binding experiments, p53wt peptide was prepared as a 3-fold serial dilution in peptide binding buffer (20 mM Bis-Tris pH 6.5, 200 mM NaCl, 0.1 mg/mL bovine serum albumin, 0.005% Tween20, +/−1 mM TCEP). The peptide was injected in triplicate at each concentration at a flow rate of 75 µL/min. […] Equilibrium dissociation constants (K d) for peptide binding were determined by equilibrium affinity analysis with a 1∶1 binding model using Scrubber2.

[6] = biological target: T3, hMDM2(18–125)C77V (Homo sapiens, UniProt Q00987, C77V); experiment: inhibition of p53 peptide binding to MDM2 cysteine mutant; conditions: hMDM2(18–125)C77V relative to MDM2; Figure S6
T3 construct: a mutant of MDM2 protein (hMDM2(18–125)C77V) lacking the cysteine
T3 sequence (Q00987 18-125 C77V): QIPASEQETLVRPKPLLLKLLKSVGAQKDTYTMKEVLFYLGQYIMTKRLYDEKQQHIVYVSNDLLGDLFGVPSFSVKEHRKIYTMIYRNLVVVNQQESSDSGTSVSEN

[7] = biological target: T4, hMDMX (untagged aa 23 to 111 construct) (Homo sapiens, UniProt O15151); experiment: mass spectrometry of covalent adducts, untagged hMDMX
T4 construct: hMDMX (untagged aa 23 to 111 construct); His-tag (cleaved yes); made in house; host or cells: E. coli BL21(DE3)
T4 sequence (O15151 23-111): T2 sequence (O15151 23-111)
Procedure: (§5) Samples were prepared in binding buffer (10 mM Tris, pH 8.0, 170 mM NaCl) with a 50 µl final volume. Samples were incubated at room temperature for 1.5 hours after which they were stored overnight at 4°C before analysis by mass spectrometry. Samples containing 1 µM hMDMX constructs were concentrated to 20 µM using 3000 MWCO centrifugal protein concentrators (Vivascience, Inc.) immediately prior to analysis. Prior to injection all samples were desalted using a reverse phase C8 Zip Tip (Millipore) and eluted in 50% acetonitrile, 2% formic acid. The samples were ionized by static nanospray using EconoTips (New Objective) on a Waters LCT Premier XE mass spectrometer using positive mode. The resultant charge envelope was deconvoluted using MaxEnt 1 algorithm of MassLynx V 4.0 sp 4 software. A mass error of 1Da for every 10,000 Da is permissible using this mass spectrometer.

[8] = tested on: retinoblastoma cells; parameters: method as in PMID 20080970; conditions: cited from earlier work
[9] = biological target: T5, MDMX (23–111) (Homo sapiens, UniProt O15151); experiment: thermal stability of MDMX by hydrophobic dye binding (thermal shift); conditions: for effect of reducing agent used alone on thermal stability of MDMX: without compound 1
T5 construct: Thermal shift data for MDMX (23–111) showing a 7 degree stabilization; made in house; host or cells: E. coli BL21(DE3)
T5 sequence (O15151 23-111): T2 sequence (O15151 23-111)
Procedure: The ITD measurements were performed with a RT-PCR instrument (Applied Biosystems 7900HT) equipped with a 384-well probe using SYBR detection (excitation 495/emission 537). The program used started at 45°C and the temperature increased at a rate of 1 degree per minute. […] The final volume was 20 µl for each well using 384 ABI PRISM™ plates (Applied Biosystems). The data was exported and evaluated using a custom data processing algorithm coded in Pipeline Pilot (Scitegic). Apparent melting temperatures were calculated by measuring the temperature at which the observed fluorescence signal was halfway between the baseline and the maximum. Binding curves were determined by graphing observed apparent melting temperature as a function of test compound concentrations. These curves were then fit to a four parameter sigmoidal dose response model using PRISM 5.0 (GraphPad Software, Inc.).

[10] = biological target: T6, MDMX (Homo sapiens, UniProt O15151); experiment: fluorescence polarization p53 peptide exclusion assay, Mdmx; assay type: binding; conditions: ND = compound does not noticeably block interaction with p53 peptide
T6 sequence (O15151 1-490): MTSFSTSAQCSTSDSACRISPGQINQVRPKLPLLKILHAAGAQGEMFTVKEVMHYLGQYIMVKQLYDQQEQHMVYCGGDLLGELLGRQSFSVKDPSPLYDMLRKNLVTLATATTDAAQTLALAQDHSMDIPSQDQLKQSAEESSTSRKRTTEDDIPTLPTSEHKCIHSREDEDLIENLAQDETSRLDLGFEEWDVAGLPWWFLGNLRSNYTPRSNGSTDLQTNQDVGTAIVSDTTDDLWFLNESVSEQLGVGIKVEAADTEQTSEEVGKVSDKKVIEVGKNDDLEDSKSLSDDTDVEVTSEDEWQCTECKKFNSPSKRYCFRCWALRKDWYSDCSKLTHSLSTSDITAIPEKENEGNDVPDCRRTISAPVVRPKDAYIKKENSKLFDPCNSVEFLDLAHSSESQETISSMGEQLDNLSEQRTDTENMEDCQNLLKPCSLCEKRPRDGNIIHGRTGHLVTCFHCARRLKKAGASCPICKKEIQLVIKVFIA
From the text: as §1, §2, §3, §4

[11] = biological target: T6, MDMX; parameters: method as in PMID 20080970; conditions: inhibition of the MDMX-p53 interaction; read-out: EC50, competition for wild type p53 peptide binding to MDMX; cited from earlier work
[12] = biological target: T7, GST-hMDMX (Homo sapiens, UniProt O15151); experiment: mass spectrometry of covalent adducts, GST-tagged hMDMX
T7 construct: made in house; host or cells: E. coli BL21(DE3)
T7 sequence (O15151 1-185): T1 sequence (O15151 1-185)
Procedure: as §5

CCOc1cc(/C=C2\C(=O)N(c3ccccc3)N=C2C)cc(Cl)c1OCC(=O)OC [compound 1]
solubility at 18 h [1]: 12 µM (≈ 5.15 µg/mL) | ability to covalently label MDM2 [2]: abolishes | IC50 [3]: 3 µM | reduction of potency after reaction with glutathione in situ ([3]; Figure S5, efficacy not completely removed): 10 fold | Ki [4]: 5.21 µM | time to return to baseline after the pulse (off rate) ([5]; non-reducing conditions): ~5 min | SPR binding ([5]; reducing conditions (TCEP)): no binding was observed | weaker potency on cysteine-lacking mutant than on MDM2 [6]: 10 fold | covalent adduct formation (mass spectrum) ([7]; 1 µM hMDMX, 5 µM compound): no alkylation | covalent adduct formation (mass spectrum) ([7]; 20 µM hMDMX, 100 µM compound): partial alkylation | p53 dependent cell death of retinoblastoma cells [8]: caused p53 dependent cell death of retinoblastoma cells | stabilization of the protein's melting point ([9]; addition of compound 1): 7 degree | EC50 ([9]; minimal time dependency (5 min vs 1 h), read-out: apparent EC50 of melting point stabilization): ~1 µM | Ki [10]: 8.07 µM | EC50 [11]: ~5 µM | covalent adduct formation (mass spectrum) ([12]; 1 µM GST-hMDMX, 5 µM compound): no alkylation events | covalent adduct formation (mass spectrum) ([12]; 20 µM GST-hMDMX, 100 µM compound): multiple alkylation events

O=C(O)CCP(CCC(=O)O)CCC(=O)O [TCEP]
effect of reducing agent used alone on thermal stability of MDMX [9]: destabilized the protein at high concentrations

O=C(O)c1cc(SSc2ccc([N+](=O)[O-])c(C(=O)O)c2)ccc1[N+](=O)[O-] [DTNB, reference compound]
ability of treated MDMX to bind p53 peptide ([3]; MDMX treated with Ellman's reagent, Figure S3): unable to bind p53 peptide | effect on melting point of MDMX ([9]; MDMX treated with Ellman's reagent, Figure S4): partially stabilized

O[C@@H](CS)[C@@H](O)CS [DTT]
effect of reducing agent used alone on thermal stability of MDMX [9]: no apparent effect

CCOc1cc(CC2C(=O)N(c3ccccc3)N=C2C)cc(Cl)c1OCC(=O)OC (centres unmarked) [compound 2]
IC50 [3]: > 100 µM | reduction of inhibitory potency by saturation of the ene-amide group ([3]; compound 2 relative to compound 1): roughly 30 fold
